Experimental data published in PubChem BioAssay AID1259407 (Chemical Carcinogenesis Research Information System (CCRIS), 2018).
Active and inactive are the calls of the source. How the calls were made is not given here.

Test system: CCRIS mutagenicity, Ames/micronucleus/aberration tests
Test: CCRIS mutagenicity studies
[1] = Test System: AMES SALMONELLA TYPHIMURIUM, Strain/Indicator: TA100, Metabolic Activation: RAT, LIVER, S-9, AROCLOR 1254, Method: STANDARD PLATE
[2] = Test System: AMES SALMONELLA TYPHIMURIUM, Strain/Indicator: TA98, Metabolic Activation: NONE, Method: PREINCUBATION
[3] = Test System: AMES SALMONELLA TYPHIMURIUM, Strain/Indicator: TA98, Metabolic Activation: HAMSTER, LIVER, S-9, AROCLOR 1254 (30%), Method: PREINCUBATION
[4] = Test System: AMES SALMONELLA TYPHIMURIUM, Strain/Indicator: TA98, Metabolic Activation: RAT, LIVER, S-9, AROCLOR 1254 (30%), Method: PREINCUBATION
[5] = Test System: AMES SALMONELLA TYPHIMURIUM, Strain/Indicator: TA100, Metabolic Activation: HAMSTER, LIVER, S-9, AROCLOR 1254 (30%), Method: PREINCUBATION
[6] = Test System: AMES SALMONELLA TYPHIMURIUM, Strain/Indicator: TA100, Metabolic Activation: NONE, Method: PREINCUBATION
[7] = Test System: AMES SALMONELLA TYPHIMURIUM, Strain/Indicator: TA100, Metabolic Activation: RAT, LIVER, S-9, AROCLOR 1254 (30%), Method: PREINCUBATION
[8] = Test System: AMES SALMONELLA TYPHIMURIUM, Strain/Indicator: TA1535, Metabolic Activation: NONE, Method: PREINCUBATION
[9] = Test System: AMES SALMONELLA TYPHIMURIUM, Strain/Indicator: TA98, Metabolic Activation: NONE, Method: STANDARD PLATE
[10] = Test System: AMES SALMONELLA TYPHIMURIUM, Strain/Indicator: TA98, Metabolic Activation: RAT, LIVER, S-9, AROCLOR 1254, Method: STANDARD PLATE
[11] = Test System: AMES SALMONELLA TYPHIMURIUM, Strain/Indicator: TA100, Metabolic Activation: NONE, Method: STANDARD PLATE

Structure (SMILES): COc1cc2c(c3ccc4ccccc4c13)CCC2=O
- mutagenic call [1]: active; positive

Structure (SMILES): Cn1c([N+](=O)[O-])nc2ncc(-c3ccccc3)cc21
- mutagenic call (Test System: AMES SALMONELLA TYPHIMURIUM, Strain/Indicator: TA98(1,8-DNP6), Metabolic Activation: NONE, Method: PREINCUBATION): active; positive
- mutagenic call (Test System: AMES SALMONELLA TYPHIMURIUM, Strain/Indicator: TA98(NR), Metabolic Activation: NONE, Method: PREINCUBATION): active; positive
- mutagenic call [2]: active; positive
- mutagenic call (Test System: AMES SALMONELLA TYPHIMURIUM, Strain/Indicator: YG1024, Metabolic Activation: NONE, Method: PREINCUBATION): active; positive

Structure (SMILES): CCCCCCCCCCCC(=O)N(CCO)CCO
- mutagenic call (End Point: IN VITRO CHROMOSOMAL ABERRATIONS, Test System: CHO-LB CELLS, Metabolic Activation: NONE): inactive; negative
- mutagenic call (End Point: IN VITRO CHROMOSOMAL ABERRATIONS, Test System: CHO-LB CELLS, Metabolic Activation: RAT, LIVER, S-9, AROCLOR 1254): inactive; negative
- mutagenic call (Test System: AMES SALMONELLA TYPHIMURIUM, Strain/Indicator: TA97, Metabolic Activation: HAMSTER, LIVER, S-9, AROCLOR 1254 (10%), Method: PREINCUBATION): inactive; negative
- mutagenic call (Test System: AMES SALMONELLA TYPHIMURIUM, Strain/Indicator: TA97, Metabolic Activation: HAMSTER, LIVER, S-9, AROCLOR 1254 (30%), Method: PREINCUBATION): inactive; negative
- mutagenic call (Test System: AMES SALMONELLA TYPHIMURIUM, Strain/Indicator: TA97, Metabolic Activation: NONE, Method: PREINCUBATION): inactive; negative
- mutagenic call (Test System: AMES SALMONELLA TYPHIMURIUM, Strain/Indicator: TA97, Metabolic Activation: RAT, LIVER, S-9, AROCLOR 1254 (10%), Method: PREINCUBATION): inactive; negative
- mutagenic call (Test System: AMES SALMONELLA TYPHIMURIUM, Strain/Indicator: TA97, Metabolic Activation: RAT, LIVER, S-9, AROCLOR 1254 (30%), Method: PREINCUBATION): inactive; negative
- mutagenic call (Test System: AMES SALMONELLA TYPHIMURIUM, Strain/Indicator: TA98, Metabolic Activation: HAMSTER, LIVER, S-9, AROCLOR 1254 (10%), Method: PREINCUBATION): inactive; negative
- mutagenic call [3]: inactive; negative
- mutagenic call [2]: inactive; negative
- mutagenic call (Test System: AMES SALMONELLA TYPHIMURIUM, Strain/Indicator: TA98, Metabolic Activation: RAT, LIVER, S-9, AROCLOR 1254 (10%), Method: PREINCUBATION): inactive; negative
- mutagenic call [4]: inactive; negative
- mutagenic call (Test System: AMES SALMONELLA TYPHIMURIUM, Strain/Indicator: TA100, Metabolic Activation: HAMSTER, LIVER, S-9, AROCLOR 1254 (10%), Method: PREINCUBATION): inactive; negative
- mutagenic call [5]: inactive; negative
- mutagenic call [6]: inactive; negative
- mutagenic call (Test System: AMES SALMONELLA TYPHIMURIUM, Strain/Indicator: TA100, Metabolic Activation: RAT, LIVER, S-9, AROCLOR 1254 (10%), Method: PREINCUBATION): inactive; negative
- mutagenic call [7]: inactive; negative
- mutagenic call (Test System: AMES SALMONELLA TYPHIMURIUM, Strain/Indicator: TA1535, Metabolic Activation: HAMSTER, LIVER, S-9, AROCLOR 1254 (10%), Method: PREINCUBATION): inactive; negative
- mutagenic call (Test System: AMES SALMONELLA TYPHIMURIUM, Strain/Indicator: TA1535, Metabolic Activation: HAMSTER, LIVER, S-9, AROCLOR 1254 (30%), Method: PREINCUBATION): inactive; negative
- mutagenic call [8]: inactive; negative
- mutagenic call (Test System: AMES SALMONELLA TYPHIMURIUM, Strain/Indicator: TA1535, Metabolic Activation: RAT, LIVER, S-9, AROCLOR 1254 (10%), Method: PREINCUBATION): inactive; negative
- mutagenic call (Test System: AMES SALMONELLA TYPHIMURIUM, Strain/Indicator: TA1535, Metabolic Activation: RAT, LIVER, S-9, AROCLOR 1254 (30%), Method: PREINCUBATION): inactive; negative

Structure (SMILES): C=Cc1ccc([N+](=O)[O-])cc1
- mutagenic call [9]: active; positive
- mutagenic call [10]: active; positive
- mutagenic call [11]: active; positive
- mutagenic call [1]: active; positive

Structure (SMILES): c1ccc(C2CO2)cc1 (stereo not given)
- mutagenic call (End Point: IN VITRO CHROMOSOMAL ABERRATIONS, Test System: CHL CELLS, Metabolic Activation: RAT, LIVER, S-9, SODIUM PHENOBARBITAL AND 5,6-BENZOFLAVONE): active; positive (structural changes)
- mutagenic call (Test System: AMES SALMONELLA TYPHIMURIUM, Strain/Indicator: TA97, Metabolic Activation: NONE, Method: STANDARD PLATE): active; positive
- mutagenic call (Test System: AMES SALMONELLA TYPHIMURIUM, Strain/Indicator: TA97, Metabolic Activation: RAT, LIVER, S-9, AROCLOR 1254, Method: STANDARD PLATE): inactive; negative
- mutagenic call [3]: inactive; negative
- mutagenic call [9]: inactive; negative
- mutagenic call (Test System: AMES SALMONELLA TYPHIMURIUM, Strain/Indicator: TA98, Metabolic Activation: RAT LIVER S-9, PHENOBARBITAL AND BETA-NAPHTHOFLAVONE, Method: PREINCUBATION): inactive; negative
- mutagenic call [4]: inactive; negative
- mutagenic call [10]: inactive; negative
- mutagenic call [5]: active; positive
- mutagenic call [6]: active; positive
- mutagenic call [11]: active; positive
- mutagenic call (Test System: AMES SALMONELLA TYPHIMURIUM, Strain/Indicator: TA100, Metabolic Activation: RAT LIVER S-9, PHENOBARBITAL AND BETA-NAPHTHOFLAVONE, Method: PREINCUBATION): active; positive
- mutagenic call [7]: active; positive
- mutagenic call [1]: inactive; negative
- mutagenic call (Test System: AMES SALMONELLA TYPHIMURIUM, Strain/Indicator: TA104, Metabolic Activation: NONE, Method: STANDARD PLATE): active; positive
- mutagenic call [8]: active; positive
- mutagenic call (Test System: AMES SALMONELLA TYPHIMURIUM, Strain/Indicator: TA1535, Metabolic Activation: NONE, Method: STANDARD PLATE): active; positive
- mutagenic call (Test System: AMES SALMONELLA TYPHIMURIUM, Strain/Indicator: TA1535, Metabolic Activation: RAT LIVER S-9, PHENOBARBITAL AND BETA-NAPHTHOFLAVONE, Method: PREINCUBATION): active; positive
- mutagenic call (Test System: AMES SALMONELLA TYPHIMURIUM, Strain/Indicator: TA1537, Metabolic Activation: NONE, Method: PREINCUBATION): active; positive
- mutagenic call (Test System: AMES SALMONELLA TYPHIMURIUM, Strain/Indicator: TA1537, Metabolic Activation: RAT LIVER S-9, PHENOBARBITAL AND BETA-NAPHTHOFLAVONE, Method: PREINCUBATION): inactive; negative
- mutagenic call (Test System: AMES SALMONELLA TYPHIMURIUM, Strain/Indicator: TA4001, Metabolic Activation: NONE, Method: STANDARD PLATE): active; positive
- mutagenic call (Test System: AMES SALMONELLA TYPHIMURIUM, Strain/Indicator: TA4006, Metabolic Activation: NONE, Method: STANDARD PLATE): active; positive
- mutagenic call (Test System: CHINESE HAMSTER V-79, Strain/Indicator: V-79/6-THIOGUANINE, Metabolic Activation: NONE, Method: FLASK ASSAY): inactive; negative
- mutagenic call (Test System: CHINESE HAMSTER V-79, Strain/Indicator: V-79/8-AZAGUANINE, Metabolic Activation: NONE, Method: STANDARD PLATE): active; positive
- mutagenic call (Test System: E. COLI, Strain/Indicator: WP2 UVRA, Metabolic Activation: NONE, Method: STANDARD PLATE): active; positive
- mutagenic call (Test System: E.COLI, Strain/Indicator: WP2UVRA, Metabolic Activation: NONE, Method: PREINCUBATION): active; positive
- mutagenic call (Test System: E.COLI, Strain/Indicator: WP2UVRA, Metabolic Activation: RAT LIVER S-9, PHENOBARBITAL AND BETA-NAPHTHOFLAVONE, Method: PREINCUBATION): active; positive
- mutagenic call (Test System: HUMAN T LYMPHOCYTES, PRIMARY CULTURES, Strain/Indicator: HPRT/6-THIOGUANINE, Metabolic Activation: NONE, Method: SUSPENSION/PLATE): active; positive
- mutagenic call (Test System: UDS HUMAN CELLS, Strain/Indicator: THY INCORP (NON-S-PHASE), Metabolic Activation: NONE, Method: LIQUID SCINTILLATION COUNTING): active; positive
